Source: ChEMBL document CHEMBL4428035, “Urea derivates of ursolic, oleanolic and maslinic acid induce apoptosis and are selective cytotoxic for several human tumor cell lines” (Eur J Med Chem, 2016)

Columns and labels:
[1] = system: 518A2; test: Cytotoxicity against human 518A2 cells assessed as reduction in cell proliferation after 96 hrs by sulforhodamine B assay; assay type: functional, cell-based; settings: 518A2, 96 h
[2] = system: FaDu; test: Cytotoxicity against human FADU cells assessed as reduction in cell proliferation after 96 hrs by sulforhodamine B assay; assay type: functional, cell-based
[3] = system: HT-29; test: Cytotoxicity against human HT-29 cells assessed as reduction in cell proliferation after 96 hrs by sulforhodamine B assay; assay type: functional, cell-based; settings: HT-29, 96 h
[4] = system: A2780; test: Cytotoxicity against human A2780 cells assessed as reduction in cell proliferation after 96 hrs by sulforhodamine B assay; assay type: functional, cell-based; settings: A2780, 96 h
[5] = system: A549; test: Cytotoxicity against human A549 cells assessed as reduction in cell proliferation after 96 hrs by sulforhodamine B assay; assay type: functional, cell-based; settings: A549, 96 h
[6] = system: MCF7; test: Cytotoxicity against human MCF7 cells assessed as reduction in cell proliferation after 96 hrs by sulforhodamine B assay; assay type: functional, cell-based; settings: MCF7, 96 h
[7] = system: NIH3T3; test: Cytotoxicity against mouse NIH/3T3 cells assessed as reduction in cell proliferation after 96 hrs by sulforhodamine B assay; assay type: ADME, cell-based; settings: NIH3T3, 96 h
[8] = system: SW-1736; test: Cytotoxicity against human SW1736 cells assessed as reduction in cell proliferation after 96 hrs by sulforhodamine B assay; assay type: functional, cell-based; settings: SW-1736, 96 h

Row | Structure (SMILES) | EC50 [1] [µM] | EC50 [2] [µM] | EC50 [3] [µM] | EC50 [4] [µM] | EC50 [5] [µM] | EC50 [6] [µM] | EC50 [7] [µM] | EC50 [8] [µM]
1 | CC(=O)O[C@@H]1[C@H](OC(C)=O)C[C@]2(C)[C@H]3CC=C4[C@@H]5CC(C)(C)CC[C@]5(C(=O)O)CC[C@@]4(C)[C@]3(C)CC[C@H]2C1(C)C | 15.3 | 17.3 | 21.4 | 10.5 | 20.4 | 17.6 | 14.2 | 22
2 | CC(=O)O[C@@H]1C[C@]2(C)[C@H]3CC=C4[C@@H]5CC(C)(C)CC[C@]5(C(=O)Nc5ccccc5)CC[C@@]4(C)[C@]3(C)CC[C@H]2C(C)(C)[C@H]1OC(C)=O | 0.7 | 1.4 | 2.9 | – | 9.5 | 3.1 | 16 | 2.9
3 | CC1(C)CC[C@]2(C(=O)NCc3ccccc3)CC[C@]3(C)C(=CC[C@@H]4[C@@]5(C)C[C@H]6OCO[C@@H]6C(C)(C)[C@@H]5CC[C@]43C)[C@@H]2C1 | > 30 | > 30 | 20.8 | – | > 30 | 16.7 | 13.9 | > 30
4 | CC(=O)O[C@H]1C[C@]2(C)[C@H]3CC=C4[C@@H]5CC(C)(C)CC[C@]5(NC(=O)c5ccccc5)CC[C@@]4(C)[C@]3(C)CC[C@H]2C(C)(C)[C@H]1OC(C)=O | 3.5 | – | 6.8 | 3.1 | 11.1 | 16.8 | 12.2 | 6.8
5 | CC(=O)O[C@H]1C[C@]2(C)[C@H]3CC=C4[C@@H]5CC(C)(C)CC[C@]5(C(=O)O)CC[C@@]4(C)[C@]3(C)CC[C@H]2C(C)(C)[C@@H]1OC(C)=O | 11.7 | 9.5 | 16.5 | 6.7 | 15.2 | 14.8 | 10 | 23.4
6 | COCO[C@@H]1C[C@]2(C)[C@H]3CC=C4[C@@H]5CC(C)(C)CC[C@]5(C(=O)NCc5ccccc5)CC[C@@]4(C)[C@]3(C)CC[C@H]2C(C)(C)[C@H]1OCOC | 22.1 | 17.9 | 15.9 | – | 17.3 | 15.2 | 15 | 18.2
7 | CC(=O)O[C@H]1C[C@]2(C)[C@H]3CC=C4[C@@H]5[C@@H](C)[C@H](C)CC[C@]5(NC(=O)c5ccccc5)CC[C@@]4(C)[C@]3(C)CC[C@H]2C(C)(C)[C@H]1OC(C)=O | 7.9 | – | 11.7 | 6.7 | 16.4 | > 30 | 14.1 | 14.9
8 | CC1(C)CC[C@]2(C(=O)NCc3ccccc3)CC[C@]3(C)C(=CC[C@@H]4[C@@](C)(CC=O)[C@H](C(C)(C)C=O)CC[C@]43C)[C@@H]2C1 | 6 | 7 | 8.3 | – | 6.9 | 5.4 | 12.2 | 7.5
9 | CC1(C)CC[C@]2(C(=O)NCc3ccccc3)CC[C@]3(C)C(=CC[C@@H]4[C@@]5(C)C[C@H]6OC(C)(C)O[C@@H]6C(C)(C)[C@@H]5CC[C@]43C)[C@@H]2C1 | 29.8 | > 30 | 25.9 | 12.9 | 26.4 | 14.6 | 21.6 | > 30
